Experimental data: paper PMC11051419, “Structural Insights into the Marine Alkaloid Discorhabdin G as a Scaffold towards New Acetylcholinesterase Inhibitors” (Marine Drugs, 2024)
Read-outs that look alike come from different tables or passages of the source.

Legend:
[1] = molecular target: T1, horse serum butyrylcholinesterase (BChE) (Equus caballus, UniProt P81908); assay: Inhibition of horse serum butyrylcholinesterase (modified Ellman method); assay type: biochemical; conditions: for IC50: Ellman method, pH 7.4, 25 °C, 3 as acetate salt; for type of inhibition against BChE: kinetic analysis, Dixon plot (Figure S4)
T1 construct: human recombinant AChE (hAChE), and horse serum BChE; purchased Sigma-Aldrich; host or cells: horse serum
Description: (§1) The inhibition of cholinesterase activity was determined using a modification of the Ellman method, which was adapted for microtiter plates. Stock solutions of 3, 7, and 8 (2 mg/mL) were prepared in pure EtOH. […] Stock solutions of the potential inhibitors and the positive controls were added to the microtiter plate wells and progressively diluted in 100 mM potassium phosphate buffer (pH 7.4) to a final volume of 50 μL. Then, 100 μL acetylthiocholine chloride (1 mM) and 5,5′-dithiobis-2-nitrobenzoic acid (0.5 mM) in 100 mM potassium phosphate buffer (pH 7.4) was added into the microtiter plate wells. The cholinesterases that were used (eeAChE, hAChE, and BChE; all from Sigma-Aldrich, St. Louis, MO, USA) were dissolved in 100 mM potassium phosphate buffer (pH 7.4) to a final concentration of 0.0075 U/mL. Each cholinesterase solution (50 μL) was added into the microtiter plate wells to start the reaction, which was followed spectrophotometrically at 405 nm at 25 °C over 5 min using a kinetic microplate reader (Dynex Technologies Inc., Chantilly, VA, USA). Blank reactions without inhibitors were run with the appropriate dilutions of EtOH, and the readings were corrected according to the corresponding blanks. Each measurement was repeated at least three times. […] The data were analyzed using the OriginPro software (OriginPro 2021 (9.8), OriginLab Corporation, Northampton, MA, USA).

[2] = molecular target: T2, human recombinant acetylcholinesterase (hAChE) (Homo sapiens, UniProt P22303); assay: Inhibition of human recombinant acetylcholinesterase (modified Ellman method); assay type: biochemical; conditions: for Ki: Dixon plot, substrate 0.125, 0.25, 0.5 mM; for Ki / IC50: 3 as acetate salt; for IC50: Ellman method, pH 7.4, 25 °C; for type of inhibition against hAChE: kinetic analysis, Dixon plot (Figure S4)
T2 construct: purchased Sigma-Aldrich
Description: as §1

[3] = molecular target: T3, electric eel acetylcholinesterase (eeAChE) (Electrophorus electricus, UniProt O42275); assay: Inhibition of electric eel acetylcholinesterase (modified Ellman method); assay type: biochemical; conditions: for Ki: Dixon plot, substrate 0.125, 0.25, 0.5 mM; for Ki / IC50: 3 as acetate salt; for IC50: Ellman method, pH 7.4, 25 °C; for type of inhibition against eeAChE: kinetic analysis, Dixon plot (Figure S4)
T3 construct: purchased Sigma-Aldrich
Description: as §1

[4] = molecular target: T3, electric eel acetylcholinesterase (eeAChE); conditions: cited from earlier work
[5] = molecular target: T1, horse serum butyrylcholinesterase (BChE); conditions: cited from earlier work
[6] = molecular target: T2, human recombinant acetylcholinesterase (hAChE); conditions: cited from earlier work
[7] = tested on: neuromuscular transmission or skeletal muscle function; conditions: electrophysiological study; cited from earlier work
[8] = discorhabdin G as trifluoroacetate (TFA) salt, ref Botić et al. [5]

T3 sequence (O42275 24-633): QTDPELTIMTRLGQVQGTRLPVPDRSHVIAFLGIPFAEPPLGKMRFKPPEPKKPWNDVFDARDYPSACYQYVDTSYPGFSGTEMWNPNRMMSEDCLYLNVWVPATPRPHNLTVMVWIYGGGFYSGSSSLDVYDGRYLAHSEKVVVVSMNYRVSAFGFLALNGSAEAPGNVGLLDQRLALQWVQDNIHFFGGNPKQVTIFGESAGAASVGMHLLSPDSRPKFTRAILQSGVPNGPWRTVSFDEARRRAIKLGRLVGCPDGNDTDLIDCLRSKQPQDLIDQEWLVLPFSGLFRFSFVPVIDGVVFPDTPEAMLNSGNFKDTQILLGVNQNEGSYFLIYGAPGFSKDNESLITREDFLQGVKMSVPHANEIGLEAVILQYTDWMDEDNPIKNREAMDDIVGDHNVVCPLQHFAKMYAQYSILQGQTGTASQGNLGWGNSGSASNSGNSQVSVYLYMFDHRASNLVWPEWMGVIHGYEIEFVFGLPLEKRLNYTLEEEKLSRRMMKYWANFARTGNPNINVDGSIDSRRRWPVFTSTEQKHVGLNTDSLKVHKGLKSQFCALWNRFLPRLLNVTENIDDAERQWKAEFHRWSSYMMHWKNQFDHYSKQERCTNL
T2 sequence (P22303 32-614): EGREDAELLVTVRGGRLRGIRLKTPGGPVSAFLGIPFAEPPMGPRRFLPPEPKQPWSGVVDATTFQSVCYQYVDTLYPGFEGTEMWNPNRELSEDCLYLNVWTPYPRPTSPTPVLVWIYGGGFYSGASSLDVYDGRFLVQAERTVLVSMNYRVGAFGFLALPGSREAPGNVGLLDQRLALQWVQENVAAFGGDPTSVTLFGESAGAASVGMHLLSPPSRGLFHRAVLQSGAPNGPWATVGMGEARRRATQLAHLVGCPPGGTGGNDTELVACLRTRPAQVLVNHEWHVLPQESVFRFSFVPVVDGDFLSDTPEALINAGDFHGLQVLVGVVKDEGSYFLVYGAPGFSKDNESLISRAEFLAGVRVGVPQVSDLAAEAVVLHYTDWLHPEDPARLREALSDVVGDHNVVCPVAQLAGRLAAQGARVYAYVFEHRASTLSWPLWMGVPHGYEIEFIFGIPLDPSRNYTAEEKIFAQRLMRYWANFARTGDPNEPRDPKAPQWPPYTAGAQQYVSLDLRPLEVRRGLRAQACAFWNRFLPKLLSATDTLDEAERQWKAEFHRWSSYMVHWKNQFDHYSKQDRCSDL
T1 sequence (P81908 whole entry): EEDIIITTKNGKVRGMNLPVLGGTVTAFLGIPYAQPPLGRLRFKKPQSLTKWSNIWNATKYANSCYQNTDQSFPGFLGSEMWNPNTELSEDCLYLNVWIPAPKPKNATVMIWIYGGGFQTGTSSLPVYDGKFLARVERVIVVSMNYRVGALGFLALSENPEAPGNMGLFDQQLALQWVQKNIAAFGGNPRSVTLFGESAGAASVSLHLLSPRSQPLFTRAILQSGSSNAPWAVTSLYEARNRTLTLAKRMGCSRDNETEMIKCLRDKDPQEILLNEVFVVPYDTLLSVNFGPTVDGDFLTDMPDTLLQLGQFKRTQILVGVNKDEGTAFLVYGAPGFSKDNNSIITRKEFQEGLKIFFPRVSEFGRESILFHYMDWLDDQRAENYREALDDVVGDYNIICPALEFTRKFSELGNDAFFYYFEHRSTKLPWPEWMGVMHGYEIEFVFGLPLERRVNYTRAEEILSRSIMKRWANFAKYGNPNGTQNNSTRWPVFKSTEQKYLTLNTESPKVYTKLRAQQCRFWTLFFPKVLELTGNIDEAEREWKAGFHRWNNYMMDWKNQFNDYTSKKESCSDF

For `Cc1nc2c3n1CCN=C3c1ccccc1C2=O` [Compound 3, 5-methyl-2H-benzo[h]imidazo[1,5,4-de]quinoxalin-7(3H)-one], the IC50 [1] was > 400 µM, the “type of inhibition against BChE” value [1] was “reversible competitive” and the Ki [2] was 5.8 µM. For the same molecule, the IC50 [2] was 16.9 µM, the “type of inhibition against hAChE” value [2] was “reversible competitive” and the Ki [3] was 7.3 µM. For the same molecule, the IC50 [3] was 13.5 µM and the “type of inhibition against eeAChE” value [3] was “reversible competitive”.

In the case of `CN(C)C(=O)Oc1cccc([N+](C)(C)C)c1` [Neostigmine methylsulfate, reference compound], the IC50 [1] is reported as 83.7 µM and the IC50 [3] is reported as 6 µM.

In the case of `CC(=O)NC1=C2NCCN=C2c2ccccc2C1=O` [Compound 8, N-(6-oxo-2,3,4,6-tetrahydrobenzo[f]quinoxalin-5-yl)acetamide], the IC50 [1] is reported as > 400 µM, the IC50 [2] is reported as > 400 µM and the IC50 [3] is reported as > 400 µM.

With `Cc1nc2c(o1)C(=O)c1ccccc1C2=O` [Compound 7, 2-methylnaphtho[2,3-d]oxazole-4,9-dione] the Ki ([1]; Dixon plot, substrate 0.125, 0.25, 0.5 mM) was 50 µM, the IC50 [1] was 145 µM and the “type of inhibition against BChE” value [1] was “reversible competitive”. The Ki [2] was 50 µM, the IC50 [2] was 234 µM and the “type of inhibition against hAChE” value [2] was “reversible competitive”. For the same molecule, the Ki [3] was 65 µM, the IC50 [3] was 188 µM and the “type of inhibition against eeAChE” value [3] was “reversible competitive”.

For discorhabdin G [Compound 1], the IC50 [4, 8] is given as 1.3 µM, the Ki [4, 8] is given as 1.6 µM and the “type of inhibition against eeAChE” value ([4]; previously observed) is given as “reversible competitive”. The IC50 [5, 8] was 7 µM, the Ki [5, 8] was 5 µM and the “type of inhibition against BChE” value ([5]; previously observed) was “reversible competitive”. The IC50 [6, 8] was 116 µM, the Ki [6, 8] was 56.2 µM and the “type of inhibition against hAChE” value ([6]; previously observed) was “reversible competitive”. For the same molecule, the “adverse effects on neuromuscular transmission or skeletal muscle function” value [7] was “no adverse effects”.
